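Method: 48-hour compound exposure of cells in 96-well plates, five concentrations, linear interpolation of endpoints. TGI denotes the concentration required for complete inhibition of growth.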
Key:
Experiment in all cases: growth of human tumour cells (NCI), 48 h
[1] = system: SN12C renal
[2] = system: MCF7 breast
[3] = system: DU-145 prostate
[4] = system: SK-MEL-28 melanoma
[5] = system: M14 melanoma
[6] = system: NCI/ADR-RES ovarian
[7] = system: U251 CNS
[8] = system: MALME-3M melanoma
[9] = system: UACC-62 melanoma
[10] = system: COLO 205 colon
[11] = system: SR leukemia
[12] = system: LOX IMVI melanoma
[13] = system: MDA-MB-435
[14] = system: SK-MEL-5 melanoma
[15] = system: A498 renal
[16] = system: OVCAR-5 ovarian
[17] = system: UACC-257 melanoma
[18] = system: NCI-H460 lung
[19] = system: NCI-H226 lung
[20] = system: OVCAR-8 ovarian
[21] = system: NCI-H522 lung
[22] = system: A549 NSCLC
[23] = system: RPMI-8226 leukemia
[24] = system: HOP-92 NSCLC
[25] = system: SK-OV-3 ovarian
[26] = system: SK-MEL-2 melanoma
[27] = system: HS 578T breast
[28] = system: KM12 colon
[29] = system: NCI-H23 lung
[30] = system: MOLT-4 leukemia
[31] = system: CCRF-CEM leukemia
[32] = system: HCC-2998 colon
[33] = system: MDA-N
[34] = system: IGROV1 ovarian
[35] = system: BT-549 breast
[36] = system: UO-31 renal
[37] = system: TK-10 renal
[38] = system: PC-3 prostate
[39] = system: SW-620 colon
[40] = system: MDA-MB-231 breast
[41] = system: SF-539 CNS
[42] = system: ACHN renal
[43] = system: HL-60(TB) leukemia
[44] = system: HCT-116 colon
[45] = system: CAKI-1 renal
[46] = system: EKVX NSCLC
[47] = system: HT29 colon
[48] = system: OVCAR-4 ovarian
[49] = system: 786-0 renal
[50] = system: HCT-15 colon
[51] = system: HOP-62 NSCLC

**Q.** `CC(C)(C)C1CCC2c3c([nH]c4ccccc34)C3C(=O)N(c4cc(Br)cc(Br)c4)C(=O)C3C2C1` (stereo unspecified) was tested. Which TGI [1] did it give?
**A.** Its TGI is 29.1 µM.

**Q.** And the TGI [2]?
**A.** The TGI was 17.5 µM.

**Q.** What about the TGI [3] of the same compound?
**A.** The TGI was greater than 100 µM.

**Q.** What about the TGI [4] of the same compound?
**A.** The TGI was 25.9 µM.

**Q.** What about the TGI [5] of the same compound?
**A.** Its TGI is greater than 100 µM.

**Q.** And the TGI [6]?
**A.** Its TGI is 40.8 µM.

**Q.** And the TGI [7]?
**A.** The TGI was 30.3 µM.

**Q.** And the TGI [8]?
**A.** The TGI was greater than 100 µM.

**Q.** What about the TGI [9] of the same compound?
**A.** Its TGI is greater than 100 µM.

**Q.** And the TGI [10]?
**A.** The TGI was greater than 100 µM.

**Q.** And the TGI [11]?
**A.** The TGI was 82.4 µM.

**Q.** What about the TGI [12] of the same compound?
**A.** Its TGI is greater than 100 µM.

**Q.** And the TGI [13]?
**A.** Its TGI is 77.2 µM.

**Q.** What about the TGI [14] of the same compound?
**A.** Its TGI is greater than 100 µM.

**Q.** What about the TGI [15] of the same compound?
**A.** Its TGI is 68.4 µM.

**Q.** What about the TGI [16] of the same compound?
**A.** Its TGI is greater than 100 µM.

**Q.** And the TGI [17]?
**A.** The TGI was greater than 100 µM.

**Q.** And the TGI [18]?
**A.** The TGI was 74.2 µM.

**Q.** And the TGI [19]?
**A.** The TGI was 75.6 µM.

**Q.** And the TGI [20]?
**A.** Its TGI is 50.2 µM.

**Q.** What about the TGI [21] of the same compound?
**A.** The TGI was 66.4 µM.

**Q.** And the TGI [22]?
**A.** Its TGI is greater than 100 µM.

**Q.** And the TGI [23]?
**A.** Its TGI is greater than 100 µM.

**Q.** And the TGI [24]?
**A.** The TGI was 8.82 µM.

**Q.** And the TGI [25]?
**A.** Its TGI is greater than 100 µM.

**Q.** What about the TGI [26] of the same compound?
**A.** The TGI was 47.5 µM.

**Q.** What about the TGI [27] of the same compound?
**A.** The TGI was 30.8 µM.

**Q.** What about the TGI [28] of the same compound?
**A.** The TGI was greater than 100 µM.

**Q.** What about the TGI [29] of the same compound?
**A.** The TGI was 63.3 µM.

**Q.** What about the TGI [30] of the same compound?
**A.** Its TGI is 38.2 µM.

**Q.** What about the TGI [31] of the same compound?
**A.** Its TGI is 25.1 µM.

**Q.** What about the TGI [32] of the same compound?
**A.** Its TGI is 24.7 µM.

**Q.** And the TGI [33]?
**A.** Its TGI is greater than 100 µM.

**Q.** What about the TGI [34] of the same compound?
**A.** The TGI was greater than 100 µM.

**Q.** What about the TGI [35] of the same compound?
**A.** The TGI was greater than 100 µM.

**Q.** And the TGI [36]?
**A.** Its TGI is 46.2 µM.

**Q.** What about the TGI [37] of the same compound?
**A.** Its TGI is 59.2 µM.

**Q.** What about the TGI [38] of the same compound?
**A.** The TGI was 33.2 µM.

**Q.** And the TGI [39]?
**A.** Its TGI is greater than 100 µM.

**Q.** What about the TGI [40] of the same compound?
**A.** The TGI was 58.8 µM.

**Q.** And the TGI [41]?
**A.** The TGI was 34 µM.

**Q.** And the TGI [42]?
**A.** Its TGI is greater than 100 µM.

**Q.** And the TGI [43]?
**A.** Its TGI is 5.82 µM.

**Q.** And the TGI [44]?
**A.** The TGI was 23.1 µM.

**Q.** What about the TGI [45] of the same compound?
**A.** The TGI was 66.6 µM.

**Q.** What about the TGI [46] of the same compound?
**A.** Its TGI is 59.4 µM.

**Q.** And the TGI [47]?
**A.** Its TGI is greater than 100 µM.

**Q.** What about the TGI [48] of the same compound?
**A.** Its TGI is 69.7 µM.

**Q.** And the TGI [49]?
**A.** Its TGI is 18.6 µM.

**Q.** What about the TGI [50] of the same compound?
**A.** Its TGI is greater than 100 µM.

**Q.** And the TGI [51]?
**A.** The TGI was 69.6 µM.

— PubChem BioAssay (NCI)
